One series can be described thus: logP by reversed-phase HPLC (EEC Directive 79/831 Annex V.A8). In kind it is physicochemical.
Settings: not given
As usually defined, the chromatographic logP is lipophilicity estimated from chromatographic retention. Higher therefore signals higher lipophilicity. On to `Cn1nnnc1/C(=N/OCc1cccc(N2C(=O)c3ccccc3C2=O)n1)c1csc(-c2ccccc2)n1` [Compound 173, O-(2-Phtalimidopyridin-6-yl)methyl-(2-phenyl-1,3-thiazol-4-yl)-(1-methyitetrazol-5-yl)methanone oxime], for which the chromatographic logP is 3.46. Still for that read-out and setting: to `Cn1nnnc1/C(=N/OCc1cccc(N)n1)c1csc(-c2ccccc2)n1` [Compound 174, O-(2-Aminopyridin-6-yl)methyl-(2-phenyl-1,3-thiazol-4-yl)-(1-methyltetrazol-5-yl)methanone oxime] belongs 1.57; to `CCCCCC(=O)Nc1cccc(CO/N=C(\c2csc(-c3ccccc3)n2)c2nnnn2C)n1` [Compound 178, O-(2-Pentylcarbonylaminopyridin-6-yl)methyl-(2-phenyl-1,3-thiazol-4-yl)-(1-methyitetrazol-5-yl)methanone oxime], 4.06.

The same series, now with this note: HPLC C18, 40° C., 0.1% aqueous formic acid / acetonitrile gradient.
As usually defined, the LogP is a log measure of how a compound divides between an organic and an aqueous phase. High values mean higher lipophilicity, low ones lower lipophilicity. In turn, `CCCCCC(=O)Nc1nc(CON=C(c2ccc(-c3ccccc3)o2)n2nnnc2C)cs1` [Compound 133] came in with a LogP of 3.8. The same measure, in the same setting: the figure for `Cc1nnnn1C(=NOCc1csc(NC(=O)C(C)C)n1)c1ccc(-c2ccccc2)o1` [Compound 134] is 3.27; for `CCCCCCCCC(=O)Nc1nc(CON=C(c2ccc(-c3ccccc3)o2)n2nnnc2C)cs1` [Compound 135] it is 5.01. `Cc1nnnn1C(=NOCc1csc(NC(=O)CCCCl)n1)c1ccc(-c2ccccc2)o1` [Compound 136] returned a LogP of 3.39.

Regarding `Cn1nnnc1C(=NOCc1csc(NC(=O)OCCc2ccccc2)n1)c1csc(-c2ccccc2)n1` [Compound 166], the LogP is 4.06. `CCCCCOC(=O)Nc1nc(CON=C(c2csc(-c3ccccc3)n2)c2nnnn2C)cs1` [Compound 167] had a LogP of 4.29.

As to `Cn1nnnc1C(=NOCc1csc(NC(=O)C2CC2)n1)c1csc(-c2ccccc2)n1` [Compound 168], the LogP is on record as 3.85. The same measure, in the same setting: the figure for `Cn1nnnc1C(=NOCc1csc(NC(=O)c2ccccc2)n1)c1csc(-c2ccccc2)n1` [Compound 169] is 3.62; for `Cn1nnnc1C(=NOCc1csc(NC(=O)C(C)(C)C)n1)c1csc(-c2ccccc2)n1` [Compound 170] it is 3.62. As for `CCCCCC(=O)Nc1nc(CON=C(c2csc(-c3ccccc3)n2)c2nnnn2C)cs1` [Compound 171], the LogP was found to be 3.94. `Cn1nnnc1C(=NOCc1csc(NC(=O)Cc2ccccc2)n1)c1csc(-c2ccccc2)n1` [Compound 172] showed a LogP of 3.58. Compound `Cn1nnnc1C(=NOCc1cccc(NC(=O)Cc2ccccc2)n1)c1csc(-c2ccccc2)n1` [Compound 175] displayed a LogP of 3.72. Same read-out and setting: to `Cn1nnnc1C(=NOCc1cccc(NC(=O)C(C)(C)C)n1)c1csc(-c2ccccc2)n1` [Compound 176] belongs 3.7. Still for that read-out and setting: the figure for `CCCCCOC(=O)Nc1cccc(CON=C(c2csc(-c3ccccc3)n2)c2nnnn2C)n1` [Compound 177] is 4.56.

These data come from patent US8119645B2, “Fungicide hydroximoyl-tetrazole derivatives” (Bayer Cropscience AG, priority 2006, dated 2012).
